Experimental data reported in patent US5216005A, “Immunosuppressive analogues and derivatives of succinylacetone” (priority 1990, dated 1993).

Tested on: adjuvant induced arthritis
Test: adjuvant induced arthritis in rats, overall arthritis score; intraarticular right paw, per kg: succinylacetone 325 μg, methyl ester 150 μg, 4-acetyl-5-oxohexanoate 560 μg
Format: in vivo, rat

Work on `CC(=O)CC(=O)CCC(=O)O` [Succinylacetone, 4,6-dioxoheptanoic acid] yielded an overall arthritis score (Exp. I (treated from same day), day 14) of 0.6 ± 1.3, an overall arthritis score (Exp. I (treated from same day), day 16) of 0.8 ± 1.8 and an overall arthritis score (Exp. I (treated from same day), day 18) of 1.4 ± 2.6. It also gave an overall arthritis score (Exp. I (treated from same day), day 20) of 3 ± 5, an overall arthritis score (Exp. I (treated from same day), day 22) of 3.8 ± 5 and an overall arthritis score (Exp. I (treated from same day), day 24) of 4 ± 3.9. For the same compound, the overall arthritis score (Exp. I (treated from same day), day 26) was 5 ± 4.3, the overall arthritis score (Exp. II (treated from day 4), day 14) was 3.2 ± 3.8 and the overall arthritis score (Exp. II (treated from day 4), day 16) was 3.2 ± 3.8. It also gave an overall arthritis score (Exp. II (treated from day 4), day 18) of 4.8 ± 3.6, an overall arthritis score (Exp. II (treated from day 4), day 20) of 7 ± 2.3 and an overall arthritis score (Exp. II (treated from day 4), day 22) of 6.2 ± 2.4. The overall arthritis score (Exp. II (treated from day 4), day 24) was 6 ± 2.7, the overall arthritis score (Exp. II (treated from day 4), day 26) was 7.8 ± 3 and the overall arthritis score (Exp. III (treated from day 14), day 14) was 2.0 ± 3.9. The overall arthritis score (Exp. III (treated from day 14), day 16) was 2.0 ± 3.9, the overall arthritis score (Exp. III (treated from day 14), day 18) was 2.0 ± 2.9 and the overall arthritis score (Exp. III (treated from day 14), day 20) was 2.4 ± 2.9. It also gave an overall arthritis score (Exp. III (treated from day 14), day 22) of 4.0 ± 3.7, an overall arthritis score (Exp. III (treated from day 14), day 24) of 2.8 ± 2.8 and an overall arthritis score (Exp. III (treated from day 14), day 26) of 3.4 ± 2.7. The effect on arthritis (comparison of treatment schedules, in words) was “also effective when administered 14 days subsequent to injection”.
